From paper PMC6412366, “The Limitations of Collagen/CPP Hybrid Peptides as Carriers for Cancer Drugs to FaDu Cells” (Molecules, 2019)

Tested on: FaDu cell surface
Experiment: Suramin wash (competitive binding) of FL8V1-treated FaDu cells
Assay type: cell-based, human
Conditions: concluded from reversed incubation order
Description: FaDu cells were seeded into MatTek dishes (No. 1.5 coverglass, 35 mm). After the cells were at least 70% confluent, the media was removed and the cells were gently washed with PBS. […] The cells were washed twice with PBS. Additional EMEM medium was added before the cell cultures were imaged using confocal microscopy (λEX = 488 for FITC tag) using the 60X oil immersion objective.

Cc1ccc(C(=O)Nc2ccc(S(=O)(=O)O)c3cc(S(=O)(=O)O)cc(S(=O)(=O)O)c23)cc1NC(=O)c1cccc(NC(=O)Nc2cccc(C(=O)Nc3cc(C(=O)Nc4ccc(S(=O)(=O)O)c5cc(S(=O)(=O)O)cc(S(=O)(=O)O)c45)ccc3C)c2)c1 [suramin]
binding of suramin to the FaDu cell surface: does not bind
